Source: patent US8445207B2, “Genes based on thalidomide, valproic acid and methotrexate treatment for screening of drug inducing teratogenicity and screening method using thereof” (priority 2009, dated 2013)

Tested on: JEG-3 (human placental choriocarcinoma cell line)
Assay: Oligo microarray gene expression in drug-treated JEG-3 (Cy5 treated / Cy3 control)
Type: cell-based
Procedure: Thalidomide, valproic acid, and methotrexate were treated to human placental choriocarcinoma cell line at the concentrations determined above (Inhibition concentration: the concentration that can kill approximately 30% of the total cells, that is the concentration of 70% viability, IC30). mRNA was extracted from the drug treated cell line, followed by synthesis of cDNA which was labeled with Cy5. The non-treated control was labeled with Cy3. The fluorescence labeled cDNA was hybridized with 41K (thalidomide), 44K (valproic acid, methotrexate) human whole genome oligomicroarray chips (Agilent, USA), followed by fluorescent image scanning to analyze gene expression patterns (see FIG. 4). Volcano Plot of each substance was also attached. Y axis indicates probability (generally converted by −log 10). X axis indicates differential expression, which is presented by log-ratio.
Total RNA was separated from the treated cell by using trizol reagent (Invitrogen Life Technologies, USA) according to the manufacture's instructions, followed by purification using RNeasy mini kit (Qiagen, USA). Genomic DNA was eliminated during RNA purification using RNase-free DNase set (Qiagen, USA).
30 μg of the total RNA obtained above and 2 μg (1 μg/μl) of oligo (dT) primer were mixed, followed by reaction at 65° C. for 10 minutes. Annealing was performed in ice right after the reaction. Reagents were prepared as shown in Table 1 for reverse transcription of the annealed RNA.
The total RNA separated from the control group JEG-3 cells was labeled with Cy3-dUTP (green) and the total RNA separated from the experiment group JEG-3 cells treated with thalidomide, valproic acid and methotrexate was labeled with Cy5-dUTP (red). At this time, the two samples were mixed and purified by Microcon YM-30 column (Millipore, USA).
Hybridization and washing were performed by the manufacturer's (GenoCheck, Korea) instructions. Particularly, hybridization was performed in a 62° C. oven for 12 hours. As a DNA microarray chip, 44 k whole human genome oligo microarray (Agilent, USA) was used. After washing (2 minutes with 2×SSC/0.1% SDS, three minutes with 1×SSC, 2 minutes with 0.2×SSC), the slide was dried by centrifugation at 800 rpm for 3 minutes.
Hybridization image on the slide was scanned with Genepix 4000B (Axon Instruments, USA). Fluorescence image of the chip on which non-hybridized genes had been washed out was obtained by using laser fluorescence scanner. Green fluorescence image indicates the activity of gene specifically expressed in the control group and red fluorescence image indicates the activity of gene specifically expressed in the experimental group. […] Scanned image was analyzed by using GenePix 4.1 software (Axon Instruments, USA) to calculate gene expression rate.

Compound: CN(Cc1cnc2nc(N)nc(N)c2n1)c1ccc(C(=O)N[C@@H](CCC(=O)O)C(=O)O)cc1 [MTX, methotrexate]
- cDNA microarray (Cy3/Cy5 ratio), KIAA0310 (GenBank AB002308): 2.29
- cDNA microarray (Cy3/Cy5 ratio), ATP10B (GenBank AB018258): 4.95
- cDNA microarray (Cy3/Cy5 ratio), TTF2 (GenBank AB209845): 1.94
- cDNA microarray (Cy3/Cy5 ratio), TncRNA (GenBank AF001893): 2.11
- cDNA microarray (Cy3/Cy5 ratio), C4orf19 (GenBank AK001879): 4.69
- cDNA microarray (Cy3/Cy5 ratio), CYP19A1 (GenBank AK023571): 2.72
- cDNA microarray (Cy3/Cy5 ratio), SLC40A1 (GenBank AK023574): 3.06
- cDNA microarray (Cy3/Cy5 ratio), ABTB2 (GenBank AK095632): 4.65
- cDNA microarray (Cy3/Cy5 ratio), TUBB3 (GenBank AK122757): 7.85
- cDNA microarray (Cy3/Cy5 ratio), MGC27016 (GenBank AK125877): 1.52
- cDNA microarray (Cy3/Cy5 ratio), GLCCI1 (GenBank AK126731): 2.84
- cDNA microarray (Cy3/Cy5 ratio), TFCP2L4 (GenBank BC036890): 4.11
- cDNA microarray (Cy3/Cy5 ratio), RGS2 (GenBank BC042755): 9.24
- cDNA microarray (Cy3/Cy5 ratio), SIAT7A (GenBank BC063830): 15.01
- cDNA microarray (Cy3/Cy5 ratio), B7-H4 (GenBank BX648021): 0.27
- cDNA microarray (Cy3/Cy5 ratio), COBLL1 (GenBank BX649112): 4.89
- cDNA microarray (Cy3/Cy5 ratio), CGA (GenBank NM_000735): 8.07
- cDNA microarray (Cy3/Cy5 ratio), PARP1 (GenBank NM_001618): 0.6
- cDNA microarray (Cy3/Cy5 ratio), SERPINB9 (GenBank NM_004155): 4.04
- cDNA microarray (Cy3/Cy5 ratio), ST8SIA4 (GenBank NM_005668): 1.82
- cDNA microarray (Cy5 treated / Cy3 control ratio), ABL1 (GenBank NM_007313): 0.49
- cDNA microarray (Cy3/Cy5 ratio), GRLF1 (GenBank NM_024342): 0.29
- cDNA microarray (Cy3/Cy5 ratio), LGP1 (GenBank NM_032484): 0.49
- cDNA microarray (Cy3/Cy5 ratio), NCOA3 (GenBank NM_181659): 2.12
- cDNA microarray (Cy3/Cy5 ratio), SR140 (GenBank XM_031553): 0.66
- cDNA microarray (Cy3/Cy5 ratio), SLC7A8 (GenBank Y18483): 3.76
- Ratio of intermediate value, NLGN1 (Genbank AB028993, drug at IC30): 0.25
- Ratio of intermediate value, VARS2L (Genbank AB067472, drug at IC30): 0.46
- Ratio of intermediate value, PPAT (Genbank AB209246, drug at IC30): 0.44
- Ratio of intermediate value, SEMA3B (Genbank AB209322, drug at IC30): 0.48
- Ratio of intermediate value, SCLY (Genbank AB209458, drug at IC30): 0.41
- Ratio of intermediate value, C8orf1 (Genbank AF061326, drug at IC30): 0.46
- Ratio of intermediate value, KUB3 (Genbank AF078164, drug at IC30): 0.45
- Ratio of intermediate value, GTF2H2 (Genbank AF078847, drug at IC30): 0.44
- Ratio of intermediate value, PARD3 (Genbank AF196185, drug at IC30): 0.28
- Ratio of intermediate value, Homo sapiens cDNA FLJ12651 fis, clone NT2RM4002062 (Genbank AK022713, drug at IC30): 0.21
- Ratio of intermediate value, BCAT2 (Genbank AK023909, NM_001190, drug at IC30): 0.35
- Ratio of intermediate value, ASS (Genbank AK027126, drug at IC30): 0.19
- Ratio of intermediate value, SHMT2 (Genbank AK055053, drug at IC30): 0.42
- Ratio of intermediate value, FLJ23441 (Genbank AK056980, drug at IC30): 0.41
- Ratio of intermediate value, RUVBL2 (Genbank AK057498, drug at IC30): 0.42
- Ratio of intermediate value, ERCC2 (Genbank AK092872, drug at IC30): 0.40
- Ratio of intermediate value, PHGDH (Genbank AK093306, drug at IC30): 0.16
- Ratio of intermediate value, GLUD1 (Genbank AK122685, drug at IC30): 0.34
- Ratio of intermediate value, HMGB1 (Genbank AK122825, drug at IC30): 0.37
- Ratio of intermediate value, YARS (Genbank AK125213, drug at IC30): 0.38
- Ratio of intermediate value, FANCF (Genbank BC005077, NM_022725, drug at IC30): 0.40
- Ratio of intermediate value, C9orf103 (Genbank BC036421, drug at IC30): 0.38
- Ratio of intermediate value, CAD (Genbank BC065510, drug at IC30): 0.40
- Ratio of intermediate value, GRLF1 (Genbank BI494022, NM_024342, drug at IC30): 0.29
- Ratio of intermediate value, CIB1 (Genbank BM467105, drug at IC30): 0.44
- Ratio of intermediate value, RAD51L1 (Genbank BX248766, drug at IC30): 0.43
- Ratio of intermediate value, NBS1 (Genbank BX640816, drug at IC30): 0.31
- Ratio of intermediate value, B7-H4 (Genbank BX648021, drug at IC30): 0.27
- Ratio of intermediate value, APEX1 (Genbank CR611116, drug at IC30): 0.33
- Ratio of intermediate value, GNAO1 (Genbank CR936770, drug at IC30): 0.49
- Ratio of intermediate value, DCLRE1A (Genbank D42045, drug at IC30): 0.43
- Ratio of intermediate value, CBS (Genbank L00972, drug at IC30): 0.47
